The source made the active and inactive calls.
Experiments:
[1] = Luminescence-based cell-based high throughput dose response assay to identify activators of the DAF-12 from the parasite S. stercoralis (ssDAF-12).; assay type: functional
[2] = biological target: T1, Oxysterols receptor LXR-beta (Homo sapiens, UniProt P55055); experiment: LXR agonists, Gal4 luciferase reporter, dose response, counter-screen for ssDAF-12 agonist project, cell-based, luminescence, HEK293, S. stercoralis campaign (AID 720737); assay type: functional; details: read-out: IC50 (the source's name)
T1 sequence (P55055 whole entry): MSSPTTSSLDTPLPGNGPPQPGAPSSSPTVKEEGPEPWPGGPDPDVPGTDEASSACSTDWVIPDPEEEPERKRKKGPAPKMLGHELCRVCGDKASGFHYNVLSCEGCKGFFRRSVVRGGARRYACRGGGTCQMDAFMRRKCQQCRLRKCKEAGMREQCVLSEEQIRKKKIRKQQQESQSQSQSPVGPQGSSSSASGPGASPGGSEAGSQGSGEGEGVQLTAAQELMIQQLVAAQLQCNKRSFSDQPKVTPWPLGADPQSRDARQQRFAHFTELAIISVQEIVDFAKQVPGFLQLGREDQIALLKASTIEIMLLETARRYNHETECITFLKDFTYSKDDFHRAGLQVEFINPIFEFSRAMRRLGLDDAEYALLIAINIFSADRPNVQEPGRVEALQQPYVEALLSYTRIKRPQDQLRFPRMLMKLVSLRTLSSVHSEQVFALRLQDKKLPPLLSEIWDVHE

[3] = biological target: T1, Oxysterols receptor LXR-beta; assay type: functional, cell-based
[4] = cytotoxicity in HEK-293T cells, dose response, cytotoxicity control for TCR NF-kB inhibitor project, luminescence, T-cell screen hits (AID 489026); assay type: functional, cell-based;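 note: cells exposed to compound about 14 hours before the viability readout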
INS1 = experiment: beta cell apoptosis inhibitors, cytokine rescue, dose response, luminescence, retest (AID 449756); assay type: functional, cell-based; details: Rattus norvegicus;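 note: cell death triggered by IL-1 beta plus TNF-alpha plus IFN-gamma mixture; protective hits raise ATP signal compared with cytokine alone wells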
[5] = biological target: T2, COUP transcription factor 2 (Homo sapiens, UniProt P24468); experiment: Luminescence-based cell-based high throughput dose response assay to identify inhibitors of COUP-TFII (NR2F2).; assay type: functional;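 note: HEK293 cells transiently cotransfected with COUP-TFII expression vector and reporter; luciferase reporter luminescence driven by COUP-TFII from the pX2-168 reporter plasmid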
T2 sequence (P24468 whole entry): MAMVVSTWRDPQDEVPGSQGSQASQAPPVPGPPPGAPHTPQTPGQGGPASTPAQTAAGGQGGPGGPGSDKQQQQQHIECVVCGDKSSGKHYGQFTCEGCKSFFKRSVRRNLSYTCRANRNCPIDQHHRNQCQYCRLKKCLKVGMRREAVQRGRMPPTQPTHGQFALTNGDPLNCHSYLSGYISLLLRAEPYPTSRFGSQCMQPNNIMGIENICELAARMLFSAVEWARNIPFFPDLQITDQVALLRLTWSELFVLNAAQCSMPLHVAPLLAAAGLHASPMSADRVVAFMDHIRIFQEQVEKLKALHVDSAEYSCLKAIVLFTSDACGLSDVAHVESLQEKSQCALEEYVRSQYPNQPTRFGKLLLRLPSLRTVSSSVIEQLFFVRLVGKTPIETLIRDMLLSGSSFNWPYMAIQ

[6] = biological target: Nuclear receptor subfamily 5 group A member 2 (Homo sapiens, UniProt O00482); assay type: functional, cell-based;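 note: HEK293T cells transfected with LRH-1 and a StAR promoter luciferase reporter; potency for inhibitors that lower LRH-1 driven reporter light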
Steroidogenic factor 1 = Steroidogenic factor 1 (Homo sapiens, UniProt Q13285); experiment: Counterscreen for inverse agonists of the liver receptor homolog-1 (LRH-1; NR5A2): Luminescence-based cell-based high throughput dose response assay to identify inverse agonists of the Steroidogenic Factor 1 Nuclear Receptor (SF1; NR5A1).; assay type: functional
[7] = StAR promoter reporter inhibition counter-screen, dose response, counter-screen for LRH-1 inverse agonist project, cell-based, luminescence, luciferase reporter (AID 651969); assay type: functional
[8] = HEK293T cell cytotoxicity, dose response, cytotoxicity control for HIV Vif inhibitor project, cherry-picks (AID 652208); assay type: functional, cell-based

Nuclear receptor subfamily 5 group A member 2, sequence (O00482 whole entry): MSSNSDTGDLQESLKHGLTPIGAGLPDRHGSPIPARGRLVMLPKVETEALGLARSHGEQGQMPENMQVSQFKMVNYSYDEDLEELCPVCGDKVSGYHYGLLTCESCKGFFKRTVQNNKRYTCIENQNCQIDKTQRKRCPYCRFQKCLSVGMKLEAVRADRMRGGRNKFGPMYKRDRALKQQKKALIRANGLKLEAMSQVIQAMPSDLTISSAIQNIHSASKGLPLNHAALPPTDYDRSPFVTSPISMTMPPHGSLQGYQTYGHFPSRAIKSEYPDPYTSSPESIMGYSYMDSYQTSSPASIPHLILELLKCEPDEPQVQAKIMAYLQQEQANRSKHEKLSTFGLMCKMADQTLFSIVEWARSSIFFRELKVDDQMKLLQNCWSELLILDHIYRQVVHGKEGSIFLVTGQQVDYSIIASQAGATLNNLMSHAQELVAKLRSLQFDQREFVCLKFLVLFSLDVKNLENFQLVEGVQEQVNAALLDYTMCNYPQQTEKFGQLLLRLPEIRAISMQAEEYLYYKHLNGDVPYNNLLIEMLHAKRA
Steroidogenic factor 1, sequence (Q13285 whole entry): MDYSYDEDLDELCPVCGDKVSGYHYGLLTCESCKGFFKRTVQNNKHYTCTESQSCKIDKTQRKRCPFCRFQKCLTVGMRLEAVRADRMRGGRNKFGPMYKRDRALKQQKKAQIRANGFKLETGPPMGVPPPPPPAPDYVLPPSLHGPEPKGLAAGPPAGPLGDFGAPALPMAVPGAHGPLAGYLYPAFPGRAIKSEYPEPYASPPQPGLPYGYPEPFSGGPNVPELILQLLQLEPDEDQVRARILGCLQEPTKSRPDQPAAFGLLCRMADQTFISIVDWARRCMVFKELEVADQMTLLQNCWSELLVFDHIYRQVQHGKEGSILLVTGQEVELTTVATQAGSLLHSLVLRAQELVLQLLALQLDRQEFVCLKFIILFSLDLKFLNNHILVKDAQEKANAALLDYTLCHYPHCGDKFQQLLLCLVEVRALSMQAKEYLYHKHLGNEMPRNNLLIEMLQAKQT

Cc1cc(-c2nc3ccccc3s2)ccc1N
IC50 [1]: > 67.6 µM (inactive)
EC50 [2]: > 67.6 µM (inactive)
EC50 [3]: > 67.6 µM (inactive)
EC50 (cells): > 67.6 µM (inactive)

Cn1cccc1C(=O)OCc1csc(-c2ccccc2)n1
IC50 [1]: > 67.5 µM (inactive)
EC50 [2]: > 67.5 µM (inactive)
EC50 [3]: > 67.5 µM (inactive)
EC50 (cells): > 67.5 µM (inactive)

Cc1nn(C)c(C)c1CN(Cc1nc(CCC(C)C)no1)C(C)C
IC50 [4]: > 80 µM (inactive)
AC50 (INS1): 2.24 µM (active)
IC50 [5]: 4.68 µM (active)

COc1ccc(N2/C(=C/C(C)=O)NC(=O)c3c(C)cc(C)nc32)cc1
IC50 [6]: 8.47 µM (active)
IC50 (Steroidogenic factor 1): 5.42 µM (active)
IC50 [7]: 35.9 µM (inactive)

Cc1cc([N+](=O)[O-])ccc1NC(=O)CSc1nnc(C)n1C
IC50 [6]: 11.9 µM (inactive)
IC50 (Steroidogenic factor 1): 11.9 µM (inactive)
IC50 [7]: 35.8 µM (inactive)

CCOC(=O)N1CCN(c2c(NCc3ccc(Cl)cc3)c(=O)c2=O)CC1
AC50 [8]: > 52 µM (inactive)

Cc1ccc2[nH]c(-c3sc4nc(C)ccc4c3N)nc2c1
IC50 [1]: > 67.6 µM (inactive)
EC50 [3]: > 67.5 µM (inactive)
EC50 (cells): > 67.5 µM (inactive)

O=C(CNC(=O)c1cccs1)OCC(=O)c1ccc(Cl)cc1
IC50 [1]: > 67.5 µM (inactive)
EC50 [2]: > 67.5 µM (inactive)

Source: ChEMBL document CHEMBL1201862, “PubChem BioAssay data set” (2004)
